Source: patent US20240285589A1, “TREATMENT USING AN ANTIVIRAL COMPOUND AND NITAZOXANIDE” (priority 2021, published 2024)

Key:
Format in all cases: in vivo, human
[1] = test system: persistent Herpes 4 and Herpes 6 infections; assay: Case Study 5: person with severe fatigue
Procedure: An active person had struggled with depression and obsessive-compulsive disorder in the past, but these problems were well-controlled with medications. They actively engaged in daily exercising, including skiing, bicycle riding, and vigorous walking. Suddenly, they developed severe fatigue. […] The patient was started on valacyclovir at a dose of 1000 mg two times per day orally. […] Then they were switched to famciclovir, titrating from 500 mg two times per day to 1000 mg two times per day orally. […] Within two months, the patient noted less fatigue.

[2] = test system: persistent Herpes 1 and Herpes 4 infections; assay: Case Study 4: person with memory problems, dementia consistent with Alzheimer's disease; details: after six months
Procedure: A person presented for evaluation of memory problems. Cognitive testing was consistent with dementia. A SPECT functional brain scan was performed. The results were consistent with Alzheimer's disease. […] The patient was started on antiviral therapy with valacyclovir 1000 mg two times per day orally. The valacyclovir was stopped and famciclovir was started at 500 mg two times per day orally. After one month, the famciclovir was increased to 1000 mg two times per day orally. […] was added to their regimen at a dose of 500 mg two times per day orally. […] Family members were thrilled with the improvement.

[3] = test system: herpes 4 and 6 as persistent infections; assay: Case Study 1: adult with CFS, anxiety and irritable bowel syndrome; details: valacyclovir 1000 mg two times per day orally, alone
Procedure: Antiviral therapy with valacyclovir at 1000 mg two times per day orally was begun. […] NTZ was added at 500 mg two times per day orally to the regimen.

[4] = test system: persistent Herpes 4 and 6 infections; assay: Case Study 2: adult with multiple symptoms of VIFD (CFS, fibromyalgia, pain)
From the text: An adult presented with multiple symptoms of VIFD across multiple systems. They experienced fatigue, brain fog, and unrefreshing sleep consistent with CFS. They experienced muscle and joint pain with trigger point pain and exaggerated reactions to pain consistent with fibromyalgia. They experienced pelvic and vaginal pain, headaches, depression, anxiety, sore throat, painful lymph nodes, numbness, and generalized pain. The symptoms involved the central nervous system, the genitourinary system, the gastrointestinal system, the immune system, the musculoskeletal system and the peripheral nervous system. […] The dose of valacyclovir was increased to 2000 mg two times per day orally. […] NTZ was then added at 500 mg two times per day orally.

[5] = test system: persistent Herpes 4 and 6 infections; assay: Case Study 3: late-middle-aged person with Parkinson's disease symptoms and depression, perfusion SPECT; details: valacyclovir 1000 mg in the morning and 2000 mg at night orally; after three months
From the text: FIGS. 1A-1B show perfusion SPECT scan from Case Study 3. […] Scale illustrates levels of perfusion with normal perfusion at the central light grey and decreased perfusion illustrated by progressively darker shades of grey.
A late-middle-aged person presented for evaluation of Parkinson's disease and depression. They had been diagnosed with Parkinson's disease by a neurologist based on clinical signs of tremor and bradykinesia. No neuroimaging had been done. […] A single-photon emission computed tomography (SPECT) brain perfusion scan and a dopamine transporter SPECT scan (DaTscan) were ordered. […] The patient was started on antiviral therapy with valacyclovir at 1000 mg two times per day orally. The dose was increased to 1000 mg orally in the morning and 2000 mg orally at night. […] A repeat perfusion SPECT brain scan was performed (FIG. 1B).

[6] = test system: Epstein-Barr virus and Herpes 1 virus; assay: Case Study 6: person with severe depression, IBS, brain fog, fatigue, headaches, SPECT; details: valacyclovir 1000 mg two times per day orally; after three months
From the text: Scale illustrates levels of perfusion in a different manner from FIG. 1. The dark grey central portion of the scale illustrates statistically normal perfusion in a given area relative to a normative database. Areas of progressively lighter grey to white illustrate areas which are 2 standard deviation (SD), 3 SD, and 4 SD below the mean of the normative database, respectively.
A person presented with a history of depression since their teen years. They were severely depressed upon presentation (Quick Inventory of Depressive Symptomatology scale 26/27) and spent most of their time in their bedroom in the basement of their parent's house. They had withdrawn from college and had never held a full-time job. Their condition was complicated by irritable bowel syndrome, brain fog, pervasive fatigue, and headaches. […] The patient also underwent a functional brain scan (single photon emission computed tomography—SPECT). […] The patient was started on the antiviral valacyclovir at 1000 mg two times per day orally. […] NTZ was added at a dose of 500 mg two times per day orally. After one month, the dose of NTZ was increased to 1000 mg two times per day orally.

Q: How did the “symptoms of severe fatigue” value ([1]; valganciclovir titrated from 450 mg to 900 mg two times per day, after four months) turn out when CC(C)[C@H](N)C(=O)OCC(CO)OCn1cnc2c(=O)nc(N)[nH]c21 (some centres unmarked) [valganciclovir] was run?
A: without improvement

Q: Which results are given for CC(=O)OCC(CCn1cnc2cnc(N)nc21)COC(C)=O [famciclovir]?
A: memory function as reflected by scores on cognitive testing ([2]; famciclovir 500 mg then 1000 mg two times per day orally): modest improvement; daily memory function ([2]; famciclovir 1000 mg two times per day orally): struggled still with daily memory function; symptoms of severe fatigue ([1]; famciclovir titrated from 500 mg to 1000 mg two times per day orally, after three months): no improvement

Q: Which results are given for CC(C)[C@H](N)C(=O)OCCOCn1cnc2c(=O)[nH]c(N)nc21 [valacyclovir]?
A: brain fog, anxiety, bowel movements [3]: still struggled with brain fog, anxiety, and frequent bowel movements; fatigue [3]: modest improvement in fatigue; need to nap on a daily basis [3]: no longer needed to nap on a daily basis; symptoms ([4]; valacyclovir 1000 mg two times per day orally, over three months): minor improvement; symptoms ([4]; valacyclovir increased to 2000 mg two times per day orally): slight additional benefit; depression symptoms [5]: marked improvement; energy and motivation [5]: improved energy and motivation; tremor and bradykinesia [5]: continued to experience tremor and bradykinesia; symptoms of severe fatigue ([1]; valacyclovir 1000 mg bid orally, after four months increased to 2000 mg two times per day): did not improve; clarity of thinking [6]: could think more clearly; depression [6]: somewhat less depressed; fatigue [6]: somewhat less fatigued; improvement in symptoms [6]: roughly 20%
